Read-outs that look alike come from different tables or passages of the source.
Assays:
[1] = Single-ascending dose (SAD) study in healthy subjects: plasma and urine pharmacokinetics; details: human, in vivo, po
Procedure: A second, generally lower peak was often observed at 3 to 4 hours postdose.
A second, generally lower peak was often observed at 3 to 4 hours post-dose. […] Over the anticipated therapeutically relevant dose range (through 10 mg), peak and overall exposures (as assessed by Cmax and area under the concentration-time curve [AUC]) increased in a generally dose-proportional manner.
Single- and Multiple-Dose Plasma Pharmacokinetics of (R)-compound 1. The single- and multiple-dose PK profiles of (R)-compound 1 have been characterized in healthy subjects in the Phase 1 studies. FIG. 7 depicts the mean plasma concentration versus time profiles of (R)-compound 1 after administration of single oral doses of (R)-compound 1 ranging from 1 mg to 360 mg (under low salt conditions) and at steady-state over the range of 0.5 mg to 5 mg (under low and/or normal salt conditions). After oral administration, (R)-compound 1 is rapidly absorbed with peak concentrations observed within 3 hours after dosing (range 0.5 to 4 hours).

[2] = Absolute bioavailability, 3 mg IV versus 3 mg oral; format: in vivo; details: human, plasma
[3] = MAD study: urine pharmacokinetics; format: in vivo, human; design: CL renal: unit not given here; details: for Ae, D 1 (amount excreted in urine, Day 1) / Ae, D 10 (amount excreted in urine, Day 10) / Fe, D 1 (fraction of dose excreted renally, Day 1) / Fe, D 10 (fraction of dose excreted renally, Day 10) / CL renal: mean; for CL renal: human, urine, oral
From the text: For each subject, the study consisted of: • A screening period of up to 28 days; • A 5-day inpatient run-in period during which subjects adhered to a controlled, standardized diet and underwent baseline PD assessments; • A 15-day inpatient treatment period, during which subjects received (R)-compound 1 or placebo once daily for 10 days while adhering to a controlled, standardized diet, followed by PK and PD sampling over an additional 5 days; and • A follow-up visit 3 days (1 day) after discharge from the clinical unit. • A cortisol stimulation test (Cohorts 1 and 2 only) and standing aldosterone assessment (all cohorts) were performed on Days 1 and 10. Serial blood samples for PK and PD were obtained prior to and at specified time points over 24 hours after dosing on Day 1 as well as prior to and at specified time points over 120 hours after dosing on Day 10. In addition, blood samples for PK were collected prior to dosing on Days 8 and 9. Urine for PK and PD measurements was collected over 24 hours starting just prior to dosing on Day 1 as well as over 120 hours starting just prior to dosing on Day 10.

[4] = SAD study Part 1: safety and tolerability (adverse events, laboratory values); format: in vivo; details: single oral dose, highest dose tested
Procedure: There were no deaths, serious adverse events (SAEs), or dose-limiting events and the maximum tolerated dose observed was at the highest dose tested (360 mg). Overall, the most frequently reported AEs following administration of a single dose of (R)-compound 1 were headache, nasopharyngitis, diarrhea, asthenia, dizziness, and nausea.
Urine sodium and the sodium to potassium ratio both increased, with the sodium loss in urine greater than the potassium retention. No change in urine creatinine was apparent.
AEs were reported for few subjects and the incidence was not dose dependent (Table 14). No severe AEs, SAEs, withdrawals due to AEs, or deaths were noted. Overall, the most frequently reported AEs across dose levels were headache, nasopharyngitis, diarrhea, and nausea; however, the only events reported by >1 subject at any dose level were toothache (2 subjects [12.5%] with placebo), nasopharyngitis (2 subjects [12.5%] with placebo), and headache (2 subjects [33.3%] with 180 mg). The majority of AEs were considered not related to study drug. Two events of moderate gastroenteritis were reported (with 180 mg and placebo) and all other AEs were mild in intensity.
Isolated markedly abnormal safety laboratory values were reported but no dose-dependent pattern was apparent. No AEs related to markedly abnormal safety laboratory values were reported. […]

CCC(=O)N[C@@H]1CCCc2c(-c3ccc4c(c3)CCC(=O)N4C)cncc21 [(R)-Compound 1, (R)—N-(4-(1-methyl-2-oxo-1,2,3,4-tetrahydroquinolin-6-yl)-5,6,7,8-tetrahydroisoquinolin-8-yl)propionamide]
AUC(0-inf) ([1]; 180 mg): 65800 ng·h/mL
AUC(0-t) ([1]; 180 mg): 33200 ng·h/mL
AUCextrapoloated ([1]; 180 mg): 0.789%
CL/F ([1]; 180 mg): 2900 mL/h
Cmax ([1]; 180 mg): 2490 ng/mL
Tmax ([1]; 180 mg): 1 h
Vd/F ([1]; 180 mg): 114 L
half-life ([1]; 180 mg): 28 h
AUC(0-inf) ([1]; 360 mg): 147000 ng·h/mL
AUC(0-t) ([1]; 360 mg): 73200 ng·h/mL
AUCextrapoloated ([1]; 360 mg): 0719%
CL/F ([1]; 360 mg): 2480 mL/h
Cmax ([1]; 360 mg): 5750 ng/mL
Tmax ([1]; 360 mg): 0.5 h
half-life ([1]; 360 mg): 27.8 h
bioavailability [2]: 97.9%
Ae, D 1 (amount excreted in urine, Day 1) ([3]; 0.5 mg QD, normal salt diet): 39952.889 ng
Ae, D 10 (amount excreted in urine, Day 10) ([3]; 0.5 mg QD, normal salt diet): 168181.917 ng
Fe, D 1 (fraction of dose excreted renally, Day 1) ([3]; 0.5 mg QD, normal salt diet): 7.991%
Fe, D 10 (fraction of dose excreted renally, Day 10) ([3]; 0.5 mg QD, normal salt diet): 33.636%
Ae, D 1 (amount excreted in urine, Day 1) ([3]; 1.5 mg QD, normal salt diet): 115762.122 ng
Ae, D 10 (amount excreted in urine, Day 10) ([3]; 1.5 mg QD, normal salt diet): 459968.526 ng
Fe, D 1 (fraction of dose excreted renally, Day 1) ([3]; 1.5 mg QD, normal salt diet): 7.717%
Fe, D 10 (fraction of dose excreted renally, Day 10) ([3]; 1.5 mg QD, normal salt diet): 30.665%
Ae, D 1 (amount excreted in urine, Day 1) ([3]; 2.5 mg QD, low salt diet): 1687233.672 ng
Ae, D 10 (amount excreted in urine, Day 10) ([3]; 2.5 mg QD, low salt diet): 766791.190 ng
Fe, D 1 (fraction of dose excreted renally, Day 1) ([3]; 2.5 mg QD, low salt diet): 6.749%
Fe, D 10 (fraction of dose excreted renally, Day 10) ([3]; 2.5 mg QD, low salt diet): 30.672%
Ae, D 1 (amount excreted in urine, Day 1) ([3]; 2.5 mg QD, normal salt diet): 270541.533 ng
Ae, D 10 (amount excreted in urine, Day 10) ([3]; 2.5 mg QD, normal salt diet): 826482.355 ng
Fe, D 1 (fraction of dose excreted renally, Day 1) ([3]; 2.5 mg QD, normal salt diet): 10.822%
Fe, D 10 (fraction of dose excreted renally, Day 10) ([3]; 2.5 mg QD, normal salt diet): 33.059%
Ae, D 1 (amount excreted in urine, Day 1) ([3]; 5.0 mg QD, low salt diet): 317339.306 ng
Ae, D 10 (amount excreted in urine, Day 10) ([3]; 5.0 mg QD, low salt diet): 1677304.469 ng
Fe, D 1 (fraction of dose excreted renally, Day 1) ([3]; 5.0 mg QD, low salt diet): 6.347%
Fe, D 10 (fraction of dose excreted renally, Day 10) ([3]; 5.0 mg QD, low salt diet): 33.546%
dose recovered unchanged in the urine, average ([3]; MAD study): approximately 7%
CL renal ([3]; 0.5 mg, 0.5 mg QD, normal salt diet, read-out: CLR, D 1 (renal clearance, Day 1) (converted)): 0.00888
CL renal ([3]; 0.5 mg, 0.5 mg QD, normal salt diet, read-out: CLR, D 10 (renal clearance, Day 10) (converted)): 0.00822
CL renal ([3]; 1.5 mg, 1.5 mg QD, normal salt diet, read-out: CLR, D 1 (renal clearance, Day 1) (converted)): 0.00958
CL renal ([3]; 1.5 mg, 1.5 mg QD, normal salt diet, read-out: CLR, D 10 (renal clearance, Day 10) (converted)): 0.00733
CL renal ([3]; 2.5 mg, 2.5 mg QD, low salt diet, read-out: CLR, D 1 (renal clearance, Day 1) (converted)): 0.00797
CL renal ([3]; 2.5 mg, 2.5 mg QD, low salt diet, read-out: CLR, D 10 (renal clearance, Day 10) (converted)): 0.0085
CL renal ([3]; 2.5 mg, 2.5 mg QD, normal salt diet, read-out: CLR, D 1 (renal clearance, Day 1) (converted)): 0.0136
CL renal ([3]; 2.5 mg, 2.5 mg QD, normal salt diet, read-out: CLR, D 10 (renal clearance, Day 10) (converted)): 0.0111
CL renal ([3]; 5 mg, 5.0 mg QD, low salt diet, read-out: CLR, D 1 (renal clearance, Day 1) (converted)): 0.00815
CL renal ([3]; 5 mg, 5.0 mg QD, low salt diet, read-out: CLR, D 10 (renal clearance, Day 10) (converted)): 0.00822
maximum tolerated dose [4]: 360 mg

From US20240277698A1, “METHODS OF USING ALDOSTERONE SYNTHASE INHIBITORS” (CINCOR PHARMA, INC., priority 2021, published 2024)
